IC50 and inhibition data for 16 compounds are collected here from patent US7579356B2, “Thia-tetraazaacenaphthylene kinase inhibitors” (Janssen Pharmaceutica NV, priority 2005, dated 2009).

Experiment [1] deals with T1, EGFR (Homo sapiens, UniProt P00533).
T1 construct: The intracellular portion of EGFR started at nucleotide 2189 (corresponding to amino acid 667) and ended at the termination codon; made in house; host or cells: Sf9 insect cells (baculovirus)
Briefly: EGFR Kinase Assay. The conditions noted are these: for IC50: GST-EGFR, ATP 5 μM; for inhibition at 2 µM: test concentration of 2 μM, compounds without an IC50, read-out: EGFR inhibition in percent. It is filed as biochemical. From the text: The EGFR kinase used was a fusion of Glutathione-S-Transferase (GST) and a PCR amplified intracellular portion of EGFR (Accession Number NM_005228). The intracellular portion of EGFR started at nucleotide 2189 (corresponding to amino acid 667) and ended at the termination codon. The portion was PCR amplified with primers that added the lambda attB sequences to each end, recombined into an entry vector, then into a GST destination vector (as described in Gateway Technologies Manual by Invitrogen Corporation, Carlsbad, Calif.).
The destination vector was recombined in the DH10BAC strain of bacteria to produce a bacmid. The bacmid was transfected into Sf 9 cells and the supernatant containing the baculovirus was collected. The GSTEGFR protein was purified using large cultures of Sf 9 cells infected with stock virus. After an appropriate period of time, the cells were collected and lysed. The GSTEGFR was then purified from the lysate on Glutathione-Sepharose columns (as described by Amersham Biosciences, Buckinghamshire, United Kingdom).
The EGFR substrate was prepared by biotinylating polyGluTyr (128 mg) (Sigma, St. Louis, Mo.) in a 1×PBS buffer incubated together with a 12-fold molar excess of Sulfo-NHS-LC-Biotin on ice for at least 2 hrs. The free biotin was separated from the biotinylated polyGluTyr on a gel filtration column.
A mixture of a 10× kinase buffer (500 mM Tris at pH 8.0, 100 mM Magnesium Chloride and 1 mM Sodium Vanadate), DTT (1 mM final from 500 mM stock), ATP (5 μM final from 10 mM stock), biotinylated polyGluTyr (10 μg/μL stock), γ-^33P ATP (10 μCl/μL stock) and water was added to each well (for a total of 90 μL/well) of a Streptavidin Flashplate (Perkin Elmer, Wellesley, Mass.).
Test compound in 100% DMSO (2 μL) was added to the appropriate wells. Diluted GSTEGFR (1:300 dilution in 50 mM Tris at pH 8.0 and 0.1% bovine serum albumin) (10 μL) was added to the wells to initiate the reactions.
The plates were incubated at 30° C. for 1 hr with shaking. The reacted contents were removed and the plates were sequentially washed three times with a 1×PBS stop buffer (300 μL without Magnesium and Calcium) and 100 mM EDTA. After the final wash, the same stop buffer (200 μL) was added to the wells. The plates were then sealed and read on the TopCount scintillation counter.
Test compounds were assayed in triplicate at 16 concentrations at half-log dilutions starting at 200 uM. A maximum and minimum signal for the assay was determined on each plate. The percent inhibition of a test compound was calculated according to the formula: […]
For a series of test concentrations, the IC50 was derived by graphing percent inhibition against the log of the concentrations tested for a given compound. For those compounds without an IC50, the inhibition values in percent are shown at a test concentration of 2 μM. For compounds with multiple values, each value represents a separate assay result.

Experiment [2] concerns the target T2, HER-2 (Homo sapiens, UniProt P04626).
T2 construct: His6 with thrombin site (N); purchased Proqinase (Freiburg, Germany)
Briefly: HER-2 Kinase Assay. The class given is biochemical. Particulars: for IC50: value in parentheses; for inhibition at 1 µM: test concentration of 1 μM. How it is done:
The HER-2 kinase used was purified at Proqinase (Freiburg, Germany) from a construct that consisted of a fusion of GST (Glutathione-S-Transferase), HIS6-Thrombin and the nucleotides encoding amino acids 679 to 1255 of HER-2 (Accession Number M11730).
A mixture of a 10× kinase reaction buffer (600 mM Hepes at pH 7.5, 30 mM Magnesium Chloride, 0.03 mM Sodium Vanadate and 500 μg/mL PEG 20,000), DTT (1.2 mM final from a 10 mM stock), APT (1 μM from a 10 mM stock), biotinylated polyGluTyr (1.5 ng/μL final from stock of 1 μg/μL) prepared by Upstate Biotechnologies, Lake Placid, N.Y.), Manganese Chloride (3 mM final from a 1 M stock), γ-^33P-ATP (10 μCl/μL stock) and water (70 μL/well) was added to each well of a Streptavidin Flashplate (Cat. # SMP103, NEN, Boston, Mass.).
Test compound stock (1 μL) was added to the appropriate wells. Diluted GSTHER2 kinase (6.7 ng/μL diluted into 50 mM Tris-HCl at pH 8.0 and 0.1% bovine serum albumin) (30 μL) was added (total volume of 200 ng/well) to initiate the reactions.
The reaction plates were incubated at 30° C. for 1 hr. The reaction was terminated by aspirating the reaction mixture from the plate wells and washing the wells three times with a 1×PBS stop buffer (300 μL) and 100 mM EDTA. After the final wash, the same stop buffer (200 μL) was again added to the wells. The plates were then sealed and read on the TopCount scintillation counter.
The Her-2 inhibition values were derived according to the procedure described in Example 164 and are shown as percent in Table 4 at a test concentration of 1 μM. For those compounds with an IC50, the IC50 value in μM is shown in parentheses. For compounds with multiple test values, each value represents a separate assay result.

T2 sequence (P04626 679-1255): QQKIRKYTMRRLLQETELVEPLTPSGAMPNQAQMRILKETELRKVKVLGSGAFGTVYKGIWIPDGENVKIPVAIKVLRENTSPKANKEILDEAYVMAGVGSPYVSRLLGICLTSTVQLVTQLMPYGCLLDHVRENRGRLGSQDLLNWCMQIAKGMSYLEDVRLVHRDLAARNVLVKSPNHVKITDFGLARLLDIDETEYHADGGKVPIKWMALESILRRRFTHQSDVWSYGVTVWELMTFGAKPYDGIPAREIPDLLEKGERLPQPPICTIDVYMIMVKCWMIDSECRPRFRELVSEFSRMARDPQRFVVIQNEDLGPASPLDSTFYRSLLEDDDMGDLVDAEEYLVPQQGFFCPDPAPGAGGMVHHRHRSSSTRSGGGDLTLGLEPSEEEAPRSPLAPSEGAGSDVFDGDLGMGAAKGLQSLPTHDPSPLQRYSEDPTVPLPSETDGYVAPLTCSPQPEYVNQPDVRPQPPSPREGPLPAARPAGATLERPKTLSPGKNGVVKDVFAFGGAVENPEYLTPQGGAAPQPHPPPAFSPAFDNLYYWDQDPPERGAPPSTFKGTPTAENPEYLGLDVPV
T1 sequence (P00533 669-1210 limits assumed): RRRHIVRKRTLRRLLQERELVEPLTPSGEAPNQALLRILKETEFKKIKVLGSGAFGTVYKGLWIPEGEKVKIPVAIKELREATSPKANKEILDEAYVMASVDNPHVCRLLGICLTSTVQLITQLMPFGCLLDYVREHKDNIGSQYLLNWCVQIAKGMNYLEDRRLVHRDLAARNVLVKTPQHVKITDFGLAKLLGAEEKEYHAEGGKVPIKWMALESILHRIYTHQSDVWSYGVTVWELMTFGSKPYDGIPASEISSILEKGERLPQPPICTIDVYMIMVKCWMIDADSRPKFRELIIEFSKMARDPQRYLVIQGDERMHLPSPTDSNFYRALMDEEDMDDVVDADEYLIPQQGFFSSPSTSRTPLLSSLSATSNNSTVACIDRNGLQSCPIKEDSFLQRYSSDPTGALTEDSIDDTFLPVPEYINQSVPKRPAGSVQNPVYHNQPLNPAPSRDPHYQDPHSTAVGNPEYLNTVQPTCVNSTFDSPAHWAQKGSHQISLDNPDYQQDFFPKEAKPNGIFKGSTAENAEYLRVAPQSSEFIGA

Turning to `O=C(Nc1ccc(CN2CCCCC2)cc1)c1sc2ncnc3c2c1NC(=O)N3c1ccc([S+]([O-])c2ccccc2)cc1` (centres unmarked) [Cpd 205, 5-(4-benzenesulfinyl-phenyl)-4-oxo-4,5-dihydro-3H-1-thia-3,5,6,8-tetraaza-acenaphthylene-2-carboxylic acid (4-piperidin-1-ylmethyl-phenyl)-amide], the 50% inhibitory concentration (IC50) (commonly the point on the concentration scale where inhibition reaches its midpoint) turned out to be 689 nM in experiment [1] and 1440 nM in experiment [2].

As to `COc1cc(NC(=O)c2sc3ncnc4c3c2NC(=O)N4c2ccc(Oc3ccccc3)cc2)ccc1CN1CCCCC1` [Cpd 242, 4-oxo-5-(4-phenoxy-phenyl)-4,5-dihydro-3H-1-thia-3,5,6,8-tetraaza-acenaphthylene-2-carboxylic acid (3-methoxy-4-piperidin-1-ylmethyl-phenyl)-amide], the IC50 in experiment [1] came to 22 nM; in experiment [2], 42 nM.

As to `COc1ccc(N2C(=O)Nc3c(C(=O)Nc4ccc(OC)c(OC)c4)sc4ncnc2c34)c(F)c1` [Cpd 69, 5-(2-fluoro-4-methoxy-phenyl)-4-oxo-4,5-dihydro-3H-1-thia-3,5,6,8-tetraaza-acenaphthylene-2-carboxylic acid (3,4-dimethoxy-phenyl)-amide], the half-maximal inhibitory concentration (IC50) in experiment [1] was determined as 970 nM. Besides, the inhibition (as a rule, the change of the read-out against control, counted positive when it falls) at 1 µM in experiment [2] is -3%.

`CN1CCC(NC(=O)c2sc3ncnc4c3c2NC(=O)N4c2ccc(Oc3ccccc3)cc2)CC1` [Cpd 211, 4-oxo-5-(4-phenoxy-phenyl)-4,5-dihydro-3H-1-thia-3,5,6,8-tetraaza-acenaphthylene-2-carboxylic acid (1-methyl-piperidin-4-yl)-amide]: the concentration for half-maximal inhibition (IC50) in experiment [1] came out at 63 nM; in experiment [2] it was 518 nM.

Take `COc1ccc(Cl)cc1N1C(=O)Nc2c(C(=O)Nc3ccc(CN(C)C[C@H]4CCCO4)cc3)sc3ncnc1c23` [Cpd 75, 5-(5-chloro-2-methoxy-phenyl)-4-oxo-4,5-dihydro-3H-1-thia-3,5,6,8-tetraaza-acenaphthylene-2-carboxylic acid [4-({methyl-[(2R)-tetrahydro-furan-2-ylmethyl]-amino}-methyl)-phenyl]-amide]: the inhibition at 2 µM in experiment [1] came out at 46%. In experiment [2], the inhibition at 1 µM came out at 2%.

Take `COc1ccc(N2C(=O)Nc3c(C(=O)Nc4ccc(OCC5CCCCO5)c(OC)c4)sc4ncnc2c34)c(F)c1` (centres unmarked) [Cpd 68, 5-(2-fluoro-4-methoxy-phenyl)-4-oxo-4,5-dihydro-3H-1-thia-3,5,6,8-tetraaza-acenaphthylene-2-carboxylic acid [3-methoxy-4-(tetrahydro-pyran-2-ylmethoxy)-phenyl]-amide]: half-maximal inhibition in experiment [1] (IC50) required 690 nM. In addition, in experiment [2], the inhibition at 1 µM is -8%.

Take `Cc1ccc(N2C(=O)Nc3c(C(=O)Nc4ccc(CN5CCCCC5)cc4)sc4ncnc2c34)cc1Br` [Cpd 111, 5-(3-bromo-4-methyl-phenyl)-4-oxo-4,5-dihydro-3H-1-thia-3,5,6,8-tetraaza-acenaphthylene-2-carboxylic acid (4-piperidin-1-ylmethyl-phenyl)-amide]: the IC50 in experiment [1] turned out to be 29 nM; in experiment [2], 325 nM.

For `COc1ccc(N2C(=O)Nc3c(C(=O)Nc4ccc(CN5CCCCC5)cc4)sc4ncnc2c34)cc1Br` [Cpd 182, 5-(3-bromo-4-methoxy-phenyl)-4-oxo-4,5-dihydro-3H-1-thia-3,5,6,8-tetraaza-acenaphthylene-2-carboxylic acid (4-piperidin-1-ylmethyl-phenyl)-amide], the IC50 was 880 nM in experiment [1] and 1680 nM in experiment [2].

Regarding `CN(C)C1CCN(Cc2ccc(NC(=O)c3sc4ncnc5c4c3NC(=O)N5c3ccc(Oc4ccccc4)cc3)cc2)CC1` [Cpd 260, 4-oxo-5-(4-phenoxy-phenyl)-4,5-dihydro-3H-1-thia-3,5,6,8-tetraaza-acenaphthylene-2-carboxylic acid [4-(4-dimethylamino-piperidin-1-ylmethyl)-phenyl]-amide], the half-inhibitory concentration (IC50) in experiment [1] was determined as 37 nM; in experiment [2], 28 nM.

Turning to `CN1CCC(NC(=O)c2sc3ncnc4c3c2NC(=O)N4c2ccc(Sc3ccccc3)cc2)CC1` [Cpd 191, 4-oxo-5-(4-phenylsulfanyl-phenyl)-4,5-dihydro-3H-1-thia-3,5,6,8-tetraaza-acenaphthylene-2-carboxylic acid (1-methyl-piperidin-4-yl)-amide], the IC50 in experiment [1] amounted to 18 nM; in experiment [2], 62 nM.

Take `O=C(Nc1ccc(CN2CCOCC2)c(Cl)c1)c1sc2ncnc3c2c1NC(=O)N3c1ccc(Oc2ccccc2)cc1` [Cpd 221, 4-oxo-5-(4-phenoxy-phenyl)-4,5-dihydro-3H-1-thia-3,5,6,8-tetraaza-acenaphthylene-2-carboxylic acid (3-chloro-4-morpholin-4-ylmethyl-phenyl)-amide]: the half-inhibitory concentration (IC50) in experiment [1] was determined as 85 nM; in experiment [2], 111 nM.

On to `O=C(Nc1ccc(CN2CCOCC2)c(OC(F)(F)F)c1)c1sc2ncnc3c2c1NC(=O)N3c1ccc(Oc2ccccc2)cc1` [Cpd 239, 4-oxo-5-(4-phenoxy-phenyl)-4,5-dihydro-3H-1-thia-3,5,6,8-tetraaza-acenaphthylene-2-carboxylic acid (4-morpholin-4-ylmethyl-3-trifluoromethoxy-phenyl)-amide], for which the IC50 was 114 nM in experiment [1] and 414 nM in experiment [2].

In the case of `CN1CCC(NC(=O)c2sc3ncnc4c3c2NC(=O)N4c2ccc(OCc3ccco3)c(Cl)c2)CC1` [Cpd 247, 5-[3-chloro-4-(furan-2-ylmethoxy)-phenyl]-4-oxo-4,5-dihydro-3H-1-thia-3,5,6,8-tetraaza-acenaphthylene-2-carboxylic acid (1-methyl-piperidin-4-yl)-amide], the IC50 in experiment [1] worked out at 249 nM; in experiment [2] it was 1190 nM.

With `O=C(Nc1cccc(CN2CCOCC2)c1)c1sc2ncnc3c2c1NC(=O)N3c1ccc(Oc2ccccc2)cc1` [Cpd 220, 4-oxo-5-(4-phenoxy-phenyl)-4,5-dihydro-3H-1-thia-3,5,6,8-tetraaza-acenaphthylene-2-carboxylic acid (3-morpholin-4-ylmethyl-phenyl)-amide], the IC50 in experiment [1] worked out at 141 nM; in experiment [2], 355 nM.

Take `COc1ccc(C(=O)c2sc3ncnc4c3c2NC(=O)N4c2ccc(Oc3ccccc3)cc2)cc1OC` [Cpd 202]: the inhibition at 2 µM in experiment [1] is 31%. Besides, in experiment [2], the 50% inhibitory concentration (IC50) is greater than 100000 nM.

With `O=C(Nc1ccc(CN2CCOCC2)c(F)c1)c1sc2ncnc3c2c1NC(=O)N3c1ccc(Oc2ccccc2)cc1` [Cpd 203, 4-oxo-5-(4-phenoxy-phenyl)-4,5-dihydro-3H-1-thia-3,5,6,8-tetraaza-acenaphthylene-2-carboxylic acid (3-fluoro-4-morpholin-4-ylmethyl-phenyl)-amide], the half-maximal inhibitory concentration (IC50) in experiment [1] is 35 nM; in experiment [2], 60 nM.
